Test results: patent publication US11691974B2, “3,9-diazaspiro[5,5]undecane compound as FLT3 and AXL inhibitors” (MEDSHINE DISCOVERY INC., priority 2018, dated 2023)

Assays:
FLT3(K663Q) = molecular target: T1, FLT3(K663Q) (Homo sapiens, UniProt P36888, K663Q); assay: KINOMEscan Kd determination, FLT3 mutant; type: binding; conditions: ratio of Kd versus compound B
T1 sequence (P36888 27-993 K663Q): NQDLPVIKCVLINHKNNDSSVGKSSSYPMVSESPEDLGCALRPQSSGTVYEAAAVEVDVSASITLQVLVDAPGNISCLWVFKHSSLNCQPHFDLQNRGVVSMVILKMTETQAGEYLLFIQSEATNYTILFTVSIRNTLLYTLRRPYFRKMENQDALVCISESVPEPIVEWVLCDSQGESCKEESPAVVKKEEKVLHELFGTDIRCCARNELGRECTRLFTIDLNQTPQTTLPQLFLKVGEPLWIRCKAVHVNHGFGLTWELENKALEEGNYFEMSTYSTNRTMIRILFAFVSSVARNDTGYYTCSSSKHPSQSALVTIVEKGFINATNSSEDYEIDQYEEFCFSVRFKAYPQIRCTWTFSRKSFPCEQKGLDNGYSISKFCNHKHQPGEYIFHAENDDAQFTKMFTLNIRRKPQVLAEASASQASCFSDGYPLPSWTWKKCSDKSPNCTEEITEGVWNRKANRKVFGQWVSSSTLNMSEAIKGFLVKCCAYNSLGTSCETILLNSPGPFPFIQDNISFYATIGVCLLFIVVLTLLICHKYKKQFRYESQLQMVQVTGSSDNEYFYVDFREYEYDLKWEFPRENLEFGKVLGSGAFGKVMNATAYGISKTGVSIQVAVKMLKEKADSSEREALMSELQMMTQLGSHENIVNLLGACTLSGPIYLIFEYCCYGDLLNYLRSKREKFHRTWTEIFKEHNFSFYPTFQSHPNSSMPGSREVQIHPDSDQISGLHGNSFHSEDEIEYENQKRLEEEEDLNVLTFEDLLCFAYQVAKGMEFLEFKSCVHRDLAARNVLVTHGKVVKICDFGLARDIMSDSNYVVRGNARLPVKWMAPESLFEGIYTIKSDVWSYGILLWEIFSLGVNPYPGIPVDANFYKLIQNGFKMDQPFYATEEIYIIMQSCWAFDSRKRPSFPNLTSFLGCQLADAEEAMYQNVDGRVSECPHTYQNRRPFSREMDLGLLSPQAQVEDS
Procedure: The assay was carried out using KINOMEscan™ technology. The assay compounds were stored in 100% DMSO. The assay was carried out by means of 3-fold dilution and 11-point fitting. All compounds used for Kd determination were dispersed by ultrasound, then directly diluted and tested. All reactions were carried out in a 384-well polypropylene plate. Each portion has a final volume of 0.02 ml. The plate was incubated with shaking at room temperature for 1 hour, and then processed. The kinase concentration in the eluent was finally determined by qPCR method. Kd was obtained by fitting.

[1] = tested on: human biphenotypic B bone marrow mononuclear leukemia cell MV4-11 subcutaneous xenograft tumor; assay: Inhibition of MV4-11 subcutaneous xenograft tumor in vivo; design: species or system nude mice
Procedure: In this assay, the anti-tumor effect of the compounds was evaluated using a nude mice model of subcutaneous xenograft tumor of human biphenotypic B bone marrow mononuclear leukemia cell MV4-11.
Human biphenotypic B bone marrow mononuclear leukemia cell MV4-11 was cultured in vitro in suspension with a RPMI1640 medium supplemented with 10% fetal bovine serum, 100 U/mL penicillin and 100 μg/mL streptomycin in a 5% CO2 cell incubator at 37° C. Routine passaging was performed twice a week. Cells in the logarithmic growth phase were collected, counted and then used for inoculation.
10×10^6 MV4-11 cells were inoculated subcutaneously on the back of the right neck of each mouse, wherein the inoculation volume was 0.2 mL, and the cell suspension was PBS plus matrigel (volume ratio 1:1). The assay of efficacy in vivo was performed on the 13th day after the cell inoculation, at which time the average tumor volume reached 181 mm^3. The mice were randomly divided into groups with 6 mice in each group, and administration to the mice started.
The diameter of the tumor was measured with vernier calipers twice a week. The formula for calculating the tumor volume is: V=0.5a×b^2, where a and b represent the long and short diameters of the tumor, respectively.
After 14 days of administration, the administration was stopped, and the rebound of the tumor was observed.

[2] = 5 mg/kg oral once a day for 14 days, then drug withdrawal

SMILES: CCc1nc(C(N)=O)c(Nc2ccc(N3CCC4(CCN(C)CC4)CC3)c(C)c2)nc1NC1CCOCC1
- activity for FLT3 (K663Q) higher than that of compound B (FLT3(K663Q)): 5.9 times
- % Inhibition rate on day 14 ([1]; 5 mg/kg oral once a day): 119%
- Average tumor volume Day 14 ([1]; 5 mg/kg oral once a day): 32 cubic millimeter
- Average tumor volume Day 25 [1, 2]: 234 cubic millimeter
- Average tumor volume Day 35 [1, 2]: 849 cubic millimeter
- Average tumor volume Day 0 ([1]; baseline at start of dosing, 5 mg/kg oral once a day group): 181 cubic millimeter
